Results taken from PubChem BioAssay AID248 (DTP/NCI, 2004).
“And” between values parts separate entries of the source, which are not always exact repeats. Equal entries are not always repeated. Inconclusive results and toxic doses are left out. Cut-off read from the data, not from the text of the source: active = T/C of 150% or more; inactive = T/C below 125%.

Test system: L1210 leukemia ip in BDF1 mice, survival T/C
Test: NCI In Vivo Anticancer Drug Screen. Data for tumor model L1210 Leukemia (intraperitoneal) in B6D2F1 (BDF1) mice
Conditions: endpoint: mean survival time, higher = longer survival
Summary of the method: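 Value reflects the ratio of survival in compound-treated mice to survival in vehicle-treated controls, with both groups carrying the same transplanted tumor.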

[1] = dose: 100.0 mg/kg/injection, schedule: Q04DX003 (ip), vehicle: Klucel (hydroxypropylcellulose) (HPC)
[2] = dose: 200.0 mg/kg/injection, schedule: Q04DX003 (ip), vehicle: Klucel (hydroxypropylcellulose) (HPC)
[3] = dose: 400.0 mg/kg/injection, schedule: Q04DX003 (ip), vehicle: Klucel (hydroxypropylcellulose) (HPC)
[4] = dose: 50.0 mg/kg/injection, schedule: Q01DX001 (ip), vehicle: saline
[5] = dose: 100.0 mg/kg/injection, schedule: Q01DX001 (ip), vehicle: saline
[6] = dose: 200.0 mg/kg/injection, schedule: Q01DX001 (ip), vehicle: saline
[7] = dose: 400.0 mg/kg/injection, schedule: Q01DX001 (ip), vehicle: saline
[8] = dose: 75.0 mg/kg/injection, schedule: Q01DX001 (ip), vehicle: saline
[9] = dose: 150.0 mg/kg/injection, schedule: Q01DX001 (ip), vehicle: saline

Measured: T/C

O=C(Nc1ccc([N+](=O)[O-])cc1)C(c1ccccc1)c1ccccc1
inactive: dose: 100.0 mg/kg/injection, schedule: Q04DX002 (ip), vehicle: gum acacia 100 % of control | dose: 200.0 mg/kg/injection, schedule: Q04DX002 (ip), vehicle: gum acacia 100 % of control | dose: 400.0 mg/kg/injection, schedule: Q04DX002 (ip), vehicle: gum acacia 93 % of control

Nc1nccc2n[nH]nc12
inactive: dose: 100.0 mg/kg/injection, schedule: Q01DX001 (ip), vehicle: Klucel (hydroxypropylcellulose) (HPC) 100 % of control | [1] 103 % of control | dose: 200.0 mg/kg/injection, schedule: Q01DX001 (ip), vehicle: Klucel (hydroxypropylcellulose) (HPC) 92 % of control | [2] 101 % of control | dose: 400.0 mg/kg/injection, schedule: Q01DX001 (ip), vehicle: Klucel (hydroxypropylcellulose) (HPC) 97 % of control | [3] 101 % of control

N/C(=N\O)c1ncn(C2OC(CO)C(O)C2O)c1N (configuration not stated)
inactive: dose: 100.0 mg/kg/injection, schedule: Q01DX005 (ip), vehicle: saline 103 % of control | dose: 200.0 mg/kg/injection, schedule: Q01DX005 (ip), vehicle: saline 108 % of control

COC(=O)C(CC(C)C)NC(=O)C(Cc1ccc(Oc2ccc([N+](=O)[O-])cc2[N+](=O)[O-])cc1)NC=O (configuration not stated)
inactive: dose: 25.0 mg/kg/injection, schedule: Q01DX009 (ip), vehicle: water 104 % of control | dose: 50.0 mg/kg/injection, schedule: Q01DX009 (ip), vehicle: water 98 % of control | dose: 100.0 mg/kg/injection, schedule: Q01DX009 (ip), vehicle: water 102 % of control | dose: 200.0 mg/kg/injection, schedule: Q01DX009 (ip), vehicle: water 91 % of control | dose: 400.0 mg/kg/injection, schedule: Q01DX009 (ip), vehicle: water 97 % of control

c1ccc(C(=NC(c2ccccc2)c2ccccc2)c2ccccc2)cc1
inactive: [4] 98 % of control | [5] 98 % of control | [6] 96 % of control | [7] 98 % of control

CCN(CC)C(=S)SCc1ccccc1OC(=O)NC
inactive: [8] 101 % of control | [9] 98 % of control

COC1=C(C)C(=O)c2c(c(COC(N)=O)c3n2CC2C3N2C)C1=O (configuration not stated)
inactive: dose: 1.0 mg/kg/injection, schedule: Q01DX009 (ip), vehicle: carboxymethylcellulose (CMC) 123 % of control | dose: 1.8 mg/kg/injection, schedule: Q01DX009 (ip), vehicle: carboxymethylcellulose (CMC) 105 % of control | dose: 1.9 mg/kg/injection, schedule: Q01DX001 (ip), vehicle: other 116 % of control and 122 % of control | dose: 2.9 mg/kg/injection, schedule: Q01DX001 (ip), vehicle: other 119 % of control | dose: 4.5 mg/kg/injection, schedule: Q01DX001 (ip), vehicle: other 122 % of control | dose: 6.7 mg/kg/injection, schedule: Q01DX001 (ip), vehicle: other 123 % of control

CCCCC(CC)CC1C(=O)NC(=S)NC1=O (configuration not stated)
inactive: [8] 97 % of control | [9] 98 % of control

[O-]/[N+](=C\c1cccc(O)c1)c1ccccc1
inactive: [4] 102 % of control | [5] 106 % of control | [6] 102 % of control | [7] 100 % of control

CCOC(=O)/C=C(\CC(=O)O)Nc1ccccc1
inactive: [5] 90 % of control | [6] 93 % of control | [7] 95 % of control

Cc1c(-c2ccccc2)sc(/N=C/c2cc(Br)cc(Br)c2O)c1C#N
inactive: dose: 100.0 mg/kg/injection, schedule: Q01DX009 (ip), vehicle: saline with Tween-80 99 % of control and 111 % of control | dose: 100.0 mg/kg/injection, schedule: Q04DX002 (ip), vehicle: saline with Tween-80 112 % of control and 90 % of control | dose: 200.0 mg/kg/injection, schedule: Q01DX009 (ip), vehicle: saline with Tween-80 97 % of control and 86 % of control | dose: 200.0 mg/kg/injection, schedule: Q04DX002 (ip), vehicle: saline with Tween-80 93 % of control and 102 % of control | dose: 400.0 mg/kg/injection, schedule: Q01DX009 (ip), vehicle: saline with Tween-80 94 % of control | dose: 400.0 mg/kg/injection, schedule: Q04DX002 (ip), vehicle: saline with Tween-80 106 % of control and 107 % of control

CC(=O)Nc1ccc(C(=O)NNC2=C(NNC(=O)c3ccc(NC(C)=O)cc3)C(=O)c3ccccc3C2=O)cc1
inactive: dose: 75.0 mg/kg/injection, schedule: Q04DX003 (ip), vehicle: saline 100 % of control | dose: 150.0 mg/kg/injection, schedule: Q04DX003 (ip), vehicle: saline 91 % of control | dose: 300.0 mg/kg/injection, schedule: Q04DX003 (ip), vehicle: saline 91 % of control

CC(C)CC(CC(C)C)NC(C)COC(=O)C(c1ccccc1)c1ccccc1 (configuration not stated)
inactive: [8] 98 % of control | [9] 102 % of control | dose: 300.0 mg/kg/injection, schedule: Q01DX001 (ip), vehicle: saline 100 % of control

CC(C)CC(=O)OC1CCCCC1
inactive: dose: 100.0 mg/kg/injection, schedule: Q04DX003 (ip), vehicle: saline with Tween-80 106 % of control | dose: 200.0 mg/kg/injection, schedule: Q04DX003 (ip), vehicle: saline with Tween-80 101 % of control | dose: 400.0 mg/kg/injection, schedule: Q04DX003 (ip), vehicle: saline with Tween-80 95 % of control

CCCCC(=O)N1CC(C)OC(C)C1 (configuration not stated)
inactive: dose: 100.0 mg/kg/injection, schedule: Q01DX001 (ip), vehicle: carboxymethylcellulose (CMC) 97 % of control | dose: 100.0 mg/kg/injection, schedule: Q01DX009 (ip), vehicle: carboxymethylcellulose (CMC) 96 % of control | dose: 100.0 mg/kg/injection, schedule: Q04DX002 (ip), vehicle: carboxymethylcellulose (CMC) 102 % of control | dose: 100.0 mg/kg/injection, schedule: Q04DX003 (ip), vehicle: carboxymethylcellulose (CMC) 102 % of control | dose: 200.0 mg/kg/injection, schedule: Q01DX001 (ip), vehicle: carboxymethylcellulose (CMC) 102 % of control | dose: 200.0 mg/kg/injection, schedule: Q01DX009 (ip), vehicle: carboxymethylcellulose (CMC) 94 % of control and 104 % of control | dose: 200.0 mg/kg/injection, schedule: Q04DX002 (ip), vehicle: carboxymethylcellulose (CMC) 98 % of control | dose: 200.0 mg/kg/injection, schedule: Q04DX003 (ip), vehicle: carboxymethylcellulose (CMC) 102 % of control | dose: 400.0 mg/kg/injection, schedule: Q01DX001 (ip), vehicle: carboxymethylcellulose (CMC) 106 % of control | dose: 400.0 mg/kg/injection, schedule: Q01DX009 (ip), vehicle: carboxymethylcellulose (CMC) 94 % of control and 98 % of control | dose: 400.0 mg/kg/injection, schedule: Q04DX002 (ip), vehicle: carboxymethylcellulose (CMC) 105 % of control | dose: 400.0 mg/kg/injection, schedule: Q04DX003 (ip), vehicle: carboxymethylcellulose (CMC) 96 % of control

CNC(=O)NC1ON=C(c2ccccc2)C1C(=O)NC (configuration not stated)
inactive: dose: 100.0 mg/kg/injection, schedule: Q01DX001 (ip), vehicle: saline with Tween-80 98 % of control | dose: 200.0 mg/kg/injection, schedule: Q01DX001 (ip), vehicle: saline with Tween-80 95 % of control

CCCCCCN(S(=O)(=O)c1ccc([N+](=O)[O-])cc1)S(=O)(=O)c1ccc([N+](=O)[O-])cc1
inactive: [1] 96 % of control | [2] 88 % of control | [3] 88 % of control

CC1=C(c2ccccc2)C(O)(c2ccccc2)C(C)C1=O (configuration not stated)
inactive: dose: 50.0 mg/kg/injection, schedule: Q01DX009 (ip), vehicle: Klucel (hydroxypropylcellulose) (HPC) 101 % of control | dose: 100.0 mg/kg/injection, schedule: Q01DX009 (ip), vehicle: Klucel (hydroxypropylcellulose) (HPC) 93 % of control | dose: 200.0 mg/kg/injection, schedule: Q01DX009 (ip), vehicle: Klucel (hydroxypropylcellulose) (HPC) 95 % of control
